Assay results as given in patent US20110236316A1, “PEPTIDE TARGETING IMAGING AGENTS AND METHODS OF USE THEREOF” (University of Utah Research Foundation, priority 2008, published 2011).

Legend:
[1] = tested on: MDA-MB-231 human breast carcinoma xenografts; assay: In vivo MR molecular imaging in MDA-MB-231 xenografts; design: species or system mice
[2] = tested on: HT-29 human colon carcinoma xenografts; assay: In vivo MR molecular imaging in HT-29 xenografts; design: species or system mice; details: 0.1 mmol/kg iv
Procedure: In vivo molecular imaging of fibrin-fibronectin complexes in tumor with the targeted contrast agent and MRI was evaluated in female athymic nu/nu mice bearing HT-29 human colon carcinoma xenografts with a T1-weighted 2D spin-echo sequence. A clinical contrast agent, Gd(DTPA-BMA), was used as a control. Competitive targeting of free CLT1 peptide to CLT1-(Gd-DTPA) was also studied with coinjection of CLT1-(Gd-DTPA) and a 3-fold excess of free CLT1 peptide. A group of 3 mice were used for each contrast agent. The mice were anesthetized by intramuscular administration of a mixture of ketamine (45 mg/kg) and xylazine (6 mg/kg) for MRI. The CLT1-(Gd-DTPA) and Gd(DTPA-BMA) was intravenously injected at a dose of 0.1 mmol/kg. Contrast enhanced MR images were acquired before and after injection at 1, 10, 20, 30 and 60 minutes on a Siemens Trio 3T scanner using a human wrist coil. High resolution 3D images were acquired with a 3D FLASH sequence with 25° flip angel, TR/TE=7.8/2.7 ms, slice thickness 0.5 mm, field of view (FOV) 120 mm, voxel size 0.5×0.5×0.5 mm T1-weighted 2D axial tumor images were acquired with a 2D spin echo sequence with TR 400 ms, TE 10 ms, 90° tip angel and FOV 50 mm Mice were sacrificed 24 hours post-injection and tumor tissues were cut and fixed with 3% paraformaldehyde and embedded in paraffin. Tissue sections (4-μm thickness) were incubated in 3% H2O2 for 10 minutes to block endogenous peroxidase activity and boiled in antigen retrieval solution for 15 minutes in microwave. The sections were then incubated with primary antibody overnight and secondary antibody the second day for visualization using the ABC kit (Santa Cruz Biotechnology).
MR signal intensity was also measured and the contrast to noise ratio (CNR) in the tumor tissues was calculated as CNR=(SItissue−SImuscle)/SDnoise.

[3] = up to 60 minutes post-injection

## CNC(=O)CN(CCN(CCN(CC(=O)[O-])CC(=O)NC)CC(=O)[O-])CC(=O)[O-].[Gd+3] [Gd(DTPA-BMA)]
[1]; after 30 minutes post-injection, 0.1 mmol/kg
  tumor enhancement (T1-weighted 2D spin-echo MRI): decreased significantly
[1]; first 15 minutes post-injection, CLT1-(Gd-DTPA) 0.05 mmol/kg, Gd(DTPA-BMA) 0.1 mmol/kg
  tumor enhancement (T1-weighted 2D spin-echo MRI): Significant tumor enhancement
[2]
  tumor enhancement compared with CLT1-(Gd-DTPA): didn't show a strong tumor enhancement
[2]; [3]
  CNR time course, tumor inner area: decreased rapidly
  CNR time course, tumor periphery: decreased rapidly
